The experiment deals with T1, N(4)-(beta-N-acetylglucosaminyl)-L-asparaginase (Homo sapiens, UniProt P20933).
T1 sequence (P20933 whole entry): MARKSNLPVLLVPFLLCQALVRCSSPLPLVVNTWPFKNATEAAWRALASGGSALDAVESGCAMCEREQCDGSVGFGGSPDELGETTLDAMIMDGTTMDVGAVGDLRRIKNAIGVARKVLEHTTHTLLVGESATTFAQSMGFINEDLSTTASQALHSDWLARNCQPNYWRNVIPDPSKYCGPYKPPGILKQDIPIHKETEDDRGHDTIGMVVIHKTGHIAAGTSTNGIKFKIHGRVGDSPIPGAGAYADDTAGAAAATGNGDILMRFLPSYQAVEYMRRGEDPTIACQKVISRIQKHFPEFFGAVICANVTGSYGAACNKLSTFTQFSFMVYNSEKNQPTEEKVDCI
In words: Inhibition Assay. Conditions: pH 5.8; 37 °C. The method, then: Glycosylasparaginase activity was measured in citrate-phosphate buffer at pH 5.8 at 37 C. N-Acetyl-D-glucosamine released during the reaction was measured using the Morgan-Elson assay.

Among the data in BindingDB's records for doi:10.1080/14756360109162375 (University of North Carolina, 2001) are Ki values, retold here.

Usually Ki stands for a measure of affinity in units of concentration, obtained from inhibition or displacement. Read a high Ki as a looser hold on the target.

Take `O=C(O)CCC(=O)O` [Succinic acid, 6]: the Ki worked out at 5000 µM. As for `N[C@H](CP(=O)(O)O)C(=O)O` [CAS_23052-80-4], the affinity, expressed as Ki, was 900 µM. `O=C(O)CC(Cl)C(=O)O` [L-2-Chlorosuccinic acid, 3]: the affinity corresponds to a Ki of 7700 µM. In turn, `CC(=O)NC1C(NC(=O)CCl)OC(CO)C(O)C1O` (stereo not given) [GlcNAc-Asn analogue, 11] returned a Ki of 640 µM. Under `N[C@H](CS(=O)(=O)O)C(=O)O` [L-cysteic acid] stands 1400 µM; under `CC(=O)NC1C(NC(=O)CN)OC(CO)C(O)C1O` (stereo not given) [GlcNAc-Asn analogue, 10], 750 µM; under `O=C(O)CC(Br)C(=O)O` [L-2-bromosuccinic acid, 4], 2700 µM.

The compound `CC(=O)NC1C(NC(=O)CBr)OC(CO)C(O)C1O` (stereo not given) [GlcNAc-Asn analogue, 12] displayed a Ki of 560 µM.

`N[C@@H](CC(=O)O)C(=O)O` [L-Aspartic acid, 2]: the affinity, expressed as Ki, was 600 µM. The figure for `CC(CC(=O)O)C(=O)O` [D,L-2-Methylsuccinic acid, 5] is 700 µM.
